Read-outs that look alike come from different tables or passages of the source.
What was measured:
in vivo = conditions: mouse, in vivo, po, LD50 p.o., p.o., 24 hours after administration, male ddY mice
Procedure: By using male ddY-strain 5-week old mice (3 to 4 per group), the compounds of general formula (1) were each administered orally or intraperitoneally as a solution in saline or as a suspension in methyl cellulose, and 24 hours after the administration, the toxicity of the compounds was evaluated.

Purkinje fiber = test: Effect on APD (APD75, field-stimulated right ventricular free wall); format: cell-based, adult mongrel dog; conditions: for activation at 1 µg/mL / activation at 3 µg/mL / activation at 10 µg/mL: Canis lupus familiaris, purkinje, 20 min, read-out: APD75 % (percent change in APD75)
Procedure: The pharmacological effects of the compounds of this invention represented by general formula (1) were studied. By using the heart of an adult mongrel dog, the activity of the compounds of general formula (1) were tested in vitro and in vivo. The heart of an anaethetized dog was extracted and suspended in a chamber at 37° C. in Tyrode's solution. The drug was added to Tyrode's solution being perfused through the heart specimen, and electrophysiological effects of the drug on cardiac action potential duration (APD) and maximum rate of depolarization were studied. An anaethetized dog was cut open at the chest.
An adult mongrel dog was anaethetized with intravenous administration of pentobarbital, 30 mg/kg. The heart was quickly removed, and the right ventricular free wall was dissected in the Tyrode's solution. The right ventricular free wall was fixed within an incubator at 37° C., and field stimulation at 1 Hz was carried out. Intracellular potentials were measured by piercing glass microelectrodes (10-20 megaohms) into the Purkinje fiber and the wave form of cardiac action potential drawn on an oscilloBraun tube via an amplifier was analyzed by a computer. Value of APD was obtained at 75% of full repolarization (APD75). The drug was added to Tyrode's solution (20 ml) perfused through the specimen. The effect of the drug was expressed by a percent change in APD75 after incubation for 20 minutes with the control value of APD before application of the drug being taken as 100%.

[1] = tested on: right ventricle (effective refractory period); test: Activity on ERP of the right ventricle; format: in vivo, adult mongrel dog; conditions: Canis lupus familiaris, iv, read-out: ERP % (ERP prolonging activity)
Procedure: The pharmacological effects of the compounds of this invention represented by general formula (1) were studied. By using the heart of an adult mongrel dog, the activity of the compounds of general formula (1) were tested in vitro and in vivo. The heart of an anaethetized dog was extracted and suspended in a chamber at 37° C. in Tyrode's solution. The drug was added to Tyrode's solution being perfused through the heart specimen, and electrophysiological effects of the drug on cardiac action potential duration (APD) and maximum rate of depolarization were studied. An anaethetized dog was cut open at the chest. […] In an anaethetized and open-chested adult mongrel dug, a silver-silver chloride electrode was sutured to the right ventricle, and ventricular pacing was performed at a stimulation interval of 400 msec for a duration time of 4 msec, twice diastolic threshold. Then, a small amount of alcohol was injected through the sinus artery to extinguish the pacemaker activity, and under ventricular pacing, ERP was measured. Ten stimulations were taken as one train, and the interval between trains when the response to the first stimulation disappeared was defined as ERP. […] ERP before drug administration (intravenously or intraduodenally) was taken as 100%, and ERP prolonging activity of the drugs was expressed by %.

[2] = dose 1 μg/ml, 20 minutes incubation, 37° C., 1 Hz, control before drug = 100%
[3] = dose 3 μg/ml, 20 minutes incubation, 37° C., 1 Hz, control before drug = 100%
[4] = dose 10 μg/ml, 20 minutes incubation, 37° C., 1 Hz, control before drug = 100%
[5] = 0.1 mg/kg i.v., ERP before drug = 100%
[6] = 0.3 mg/kg i.v., ERP before drug = 100%
[7] = 1 mg/kg i.v., ERP before drug = 100%
[8] = 3 mg/kg i.v., ERP before drug = 100%

| SMILES | LD50 at 24 h (in vivo) | activation at 1 µg/mL (Purkinje fiber; [2]) | activation at 3 µg/mL (Purkinje fiber; [3]) | activation at 10 µg/mL (Purkinje fiber; [4]) | change in vivo at 0.1 mg/kg [1, 5] | change in vivo at 0.3 mg/kg [1, 6] | change in vivo at 1 mg/kg [1, 7] | change in vivo at 3 mg/kg [1, 8] | also measured |
| --- | --- | --- | --- | --- | --- | --- | --- | --- | --- |
| CC(C)N(CCCOc1ccc2c(c1)OCC2=O)C(C)C [Compound 116] | > 300 mg/kg | 14% | 38% | 44% | 3% | 7% | 9% | 9% |  |
| CC(C)CN(CCCOc1ccc2c(c1)OCC2=O)CC(C)C [Compound 132] | > 300 mg/kg | 7% | 18% | 21% | 2.4 ± 2.4% | 2.4 ± 2.4% | 4.8 ± 4.8% | 4.8 ± 4.8% |  |
| CCN(CCCOc1ccc2c(c1)OCC2=O)CC1CCCO1 (stereo not drawn) [Compound 184] | ~300 mg/kg |  | 16% | 31% | 4.3 ± 2.2% | 6.3 ± 3.4% | 6.3 ± 3.4% |  |  |
| CCCCCCCN(CC)CCOc1ccc2c(c1)OCC2=O [Compound 196] | ~300 mg/kg | 7% | 10% | 11% | 5% | 5% | 18% |  |  |
| CCCCCCCN(CC)CCCCOc1ccc2c(c1)OCC2=O [Compound 212] | 300 to 600 mg/kg | 4% | 8% |  | 7.1 ± 3.4% | 7.1 ± 3.4% | 13.8 ± 3.6% | 13.8 ± 3.6% |  |
| CCCCCCCN(CC)CC(O)COc1ccc2c(c1)OCC2=O.Cc1ccc(S(=O)(=O)O)cc1 (stereo not drawn) [Compound 216, 6-[3-(N-ethyl-N-heptylamino)-2-hydroxypropyloxy]coumaran-3-one p-toluenesu lfonate] | 300 to 600 mg/kg |  |  |  |  |  |  |  | activation at 1 µg/mL (Purkinje fiber): 13%; activation at 3 µg/mL (Purkinje fiber): 17%; change in vivo at 0.1 mg/kg [1]: 8%; change in vivo at 0.3 mg/kg [1]: 8%; change in vivo at 1 mg/kg [1]: 8%; change in vivo at 3 mg/kg [1]: 8% |
| CCCCCCCN(CC)CCCOc1ccc2c(c1OC)OCC2=O [Compound 244] | ~300 mg/kg | 6% | 9% | 11% | 0% | 9% | 9% | 17% |  |
| O=C1COc2cc(OCCCN3CCCCC3)ccc21 [Compound 1110] | > 300 mg/kg |  |  |  |  |  |  |  | APD75 % (percent change in APD75) (Purkinje fiber; [3]): 10%; APD75 % (percent change in APD75) (Purkinje fiber; [4]): 20% |
| O=C1COc2cc(OCCCN3CCCC4CCCCC43)ccc21 (stereo not drawn) [Compound 1158] | > 300 mg/kg |  | 10% | 13% |  |  |  |  |  |
| CC[N+]1(CCCOc2ccc3c(c2)OCC3=O)CC(C)OC(C)C1 (stereo not drawn) [Compound 1171] | > 300 mg/kg | 0% | 10% |  |  |  |  |  |  |
| CC1CCN(CCCOc2ccc3c(c2)OCC3=O)CC(C)C1 (stereo not drawn) [Compound 1194] | > 300 mg/kg | 16% | 19% |  |  |  |  |  |  |
| CC(=O)NC1CCN(CCCOc2ccc3c(c2)OCC3=O)CC1 [Compound 1302] | > 300 mg/kg |  | 5% | 13% |  |  |  |  |  |

From patent US5192799A, “Coumaran group containing amine compounds and their acid addition salts and quaternary ammonium salts and the use thereof as anti arrhythmic agents and as psychotropic agents” (Mitsui Petrochemical Industries, Ltd., priority 1987, dated 1993)
